Where two headings read alike, the source gives them in different places.
Key:
TMPRSS2 [1] = biological target: T1, TMPRSS2 (Homo sapiens, UniProt O15393)
Protocol: Negative ctrl: no inhibitor, positive ctrl: inhibitor in assay buffer. d Inhibitory constants Ki as determined from (a–c). Shown are the means ± SD of n = 1 experiment performed in triplicates. No inh. no inhibition.
(§1) The activity of the compounds against the recombinant human enzymes was determined in enzyme inhibition assays. […] The measurements were performed on a Tecan infinite® M1000 and the fluorescence intensity was measured by exciting the AMC fluorophore at 380 nm wavelength and recording emission at 460 nm wavelength. […] Fluorescence intensities and absorption were measured every 2 min for 2 h or as endpoint after 2 h. […] To determine the IC50 values, the concentration-response data were plotted with the program GraphPad prism version 8.4.2 (San Diego, California) and a nonlinear regression fit with the equation [Inhibitor] vs. normalized response was applied. The inhibitory constant Ki was calculated from the IC50 values using the Cheng–Prusoff equation (Ki = IC50/[S]/KM) for competitive reversible inhibitors[66].
(§2) The stability of the inhibitors was measured according to a modified procedure from ref. [67]. […] At indicated timepoints, 100 µL samples were taken and mixed with 200 µL of ethanol to precipitate proteins. […] The supernatant was aspirated and analyzed using analytical HPLC. The residual inhibitory constants Ki after incubation was assessed by mixing serial dilutions of the inhibitor with recombinant TMPRSS2 as described above.

TMPRSS2 [2] = biological target: T1, TMPRSS2; test: Plasma stability: residual TMPRSS2 inhibition after incubation in human plasma
Protocol: as §1, §2
Shown are the means ± SD of n=1 experiment performed in triplicates.

[3] = inhibitor 166.5 nM, positive ctrl
[4] = inhibitor 1665 nM, positive ctrl

T1 sequence (O15393 whole entry): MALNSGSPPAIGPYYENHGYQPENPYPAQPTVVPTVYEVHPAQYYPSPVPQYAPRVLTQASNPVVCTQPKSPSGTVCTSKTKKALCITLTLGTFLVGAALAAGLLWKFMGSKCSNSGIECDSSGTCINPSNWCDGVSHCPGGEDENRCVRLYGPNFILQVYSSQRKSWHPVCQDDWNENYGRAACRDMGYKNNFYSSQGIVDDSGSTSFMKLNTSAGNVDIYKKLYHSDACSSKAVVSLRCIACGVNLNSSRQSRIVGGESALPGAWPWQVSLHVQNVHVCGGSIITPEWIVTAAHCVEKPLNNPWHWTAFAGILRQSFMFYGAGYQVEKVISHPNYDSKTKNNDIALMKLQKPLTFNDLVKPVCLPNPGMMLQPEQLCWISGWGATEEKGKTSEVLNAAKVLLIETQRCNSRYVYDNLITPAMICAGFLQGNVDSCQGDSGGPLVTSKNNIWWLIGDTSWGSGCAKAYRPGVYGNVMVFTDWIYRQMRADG

Substance: ace-Arg-Pro-Arg-kbt [Compound 2]
- TMPRSS2 activity, Mean (0 nM = 100) (TMPRSS2 [1]; inhibitor 166.5 nM, 0 min in serum): 41.7125
- TMPRSS2 activity, Mean (0 nM = 100) (TMPRSS2 [1]; inhibitor 166.5 nM, 30 min in serum): 36.7343
- TMPRSS2 activity, Mean (0 nM = 100) (TMPRSS2 [1]; inhibitor 166.5 nM, 60 min in serum): 32.5087
- TMPRSS2 activity, Mean (0 nM = 100) (TMPRSS2 [1]; inhibitor 166.5 nM, 120 min in serum): 34.3878
- TMPRSS2 activity, Mean (0 nM = 100) (TMPRSS2 [1]; inhibitor 166.5 nM, 24 h in serum): 36.8130
- TMPRSS2 activity, Mean (0 nM = 100) (TMPRSS2 [1]; inhibitor 166.5 nM, 10 d in serum): 52.5195
- TMPRSS2 activity, Mean (0 nM = 100) (TMPRSS2 [1]; [3]): 21.7311
- TMPRSS2 activity, Mean (0 nM = 100) (TMPRSS2 [1]; inhibitor 1665 nM, 0 min in serum): 8.0842
- TMPRSS2 activity, Mean (0 nM = 100) (TMPRSS2 [1]; inhibitor 1665 nM, 30 min in serum): 8.9275
- TMPRSS2 activity, Mean (0 nM = 100) (TMPRSS2 [1]; inhibitor 1665 nM, 60 min in serum): 5.1862
- TMPRSS2 activity, Mean (0 nM = 100) (TMPRSS2 [1]; inhibitor 1665 nM, 120 min in serum): 6.5663
- TMPRSS2 activity, Mean (0 nM = 100) (TMPRSS2 [1]; inhibitor 1665 nM, 24 h in serum): 7.0802
- TMPRSS2 activity, Mean (0 nM = 100) (TMPRSS2 [1]; inhibitor 1665 nM, 10 d in serum): 12.0706
- TMPRSS2 activity, Mean (0 nM = 100) (TMPRSS2 [1]; [4]): 5.8217
- TMPRSS2 activity, Mean (0 nM = 100) (TMPRSS2 [2]; inhibitor 0.0167 nM, 0 min in plasma): 108.191
- TMPRSS2 activity, Mean (0 nM = 100) (TMPRSS2 [2]; inhibitor 0.0167 nM, 30 min in plasma): 105.387
- TMPRSS2 activity, Mean (0 nM = 100) (TMPRSS2 [2]; inhibitor 0.0167 nM, 60 min in plasma): 97.3483
- TMPRSS2 activity, Mean (0 nM = 100) (TMPRSS2 [2]; inhibitor 0.0167 nM, 120 min in plasma): 100.611
- TMPRSS2 activity, Mean (0 nM = 100) (TMPRSS2 [2]; inhibitor 0.0167 nM, 24 h in plasma): 95.898
- TMPRSS2 activity, Mean (0 nM = 100) (TMPRSS2 [2]; inhibitor 0.0167 nM, 10 d in plasma): 98.4437
- TMPRSS2 activity, Mean (0 nM = 100) (TMPRSS2 [2]; inhibitor 0.0167 nM, positive ctrl): 103.005
- TMPRSS2 activity, Mean (0 nM = 100) (TMPRSS2 [2]; inhibitor 0.167 nM, 0 min in plasma): 105.131
- TMPRSS2 activity, Mean (0 nM = 100) (TMPRSS2 [2]; inhibitor 0.167 nM, 30 min in plasma): 104.481
- TMPRSS2 activity, Mean (0 nM = 100) (TMPRSS2 [2]; inhibitor 0.167 nM, 60 min in plasma): 96.8072
- TMPRSS2 activity, Mean (0 nM = 100) (TMPRSS2 [2]; inhibitor 0.167 nM, 120 min in plasma): 98.0518
- TMPRSS2 activity, Mean (0 nM = 100) (TMPRSS2 [2]; inhibitor 0.167 nM, 24 h in plasma): 93.482
- TMPRSS2 activity, Mean (0 nM = 100) (TMPRSS2 [2]; inhibitor 0.167 nM, 10 d in plasma): 101.036
- TMPRSS2 activity, Mean (0 nM = 100) (TMPRSS2 [2]; inhibitor 0.167 nM, positive ctrl): 100.219
- TMPRSS2 activity, Mean (0 nM = 100) (TMPRSS2 [2]; inhibitor 1.665 nM, 0 min in plasma): 102.769
- TMPRSS2 activity, Mean (0 nM = 100) (TMPRSS2 [2]; inhibitor 1.665 nM, 30 min in plasma): 100.449
- TMPRSS2 activity, Mean (0 nM = 100) (TMPRSS2 [2]; inhibitor 1.665 nM, 60 min in plasma): 96.1849
- TMPRSS2 activity, Mean (0 nM = 100) (TMPRSS2 [2]; inhibitor 1.665 nM, 120 min in plasma): 100.213
- TMPRSS2 activity, Mean (0 nM = 100) (TMPRSS2 [2]; inhibitor 1.665 nM, 24 h in plasma): 98.9115
- TMPRSS2 activity, Mean (0 nM = 100) (TMPRSS2 [2]; inhibitor 1.665 nM, 10 d in plasma): 97.0442
- TMPRSS2 activity, Mean (0 nM = 100) (TMPRSS2 [2]; inhibitor 1.665 nM, positive ctrl): 88.8492
- TMPRSS2 activity, Mean (0 nM = 100) (TMPRSS2 [2]; inhibitor 16.65 nM, 0 min in plasma): 86.0968
- TMPRSS2 activity, Mean (0 nM = 100) (TMPRSS2 [2]; inhibitor 16.65 nM, 30 min in plasma): 100.379
- TMPRSS2 activity, Mean (0 nM = 100) (TMPRSS2 [2]; inhibitor 16.65 nM, 60 min in plasma): 78.8625
- TMPRSS2 activity, Mean (0 nM = 100) (TMPRSS2 [2]; inhibitor 16.65 nM, 120 min in plasma): 82.8569
- TMPRSS2 activity, Mean (0 nM = 100) (TMPRSS2 [2]; inhibitor 16.65 nM, 24 h in plasma): 83.5789
- TMPRSS2 activity, Mean (0 nM = 100) (TMPRSS2 [2]; inhibitor 16.65 nM, 10 d in plasma): 88.0057
- TMPRSS2 activity, Mean (0 nM = 100) (TMPRSS2 [2]; inhibitor 16.65 nM, positive ctrl): 53.0338
- TMPRSS2 activity, Mean (0 nM = 100) (TMPRSS2 [2]; inhibitor 166.5 nM, 0 min in plasma): 23.84
- TMPRSS2 activity, Mean (0 nM = 100) (TMPRSS2 [2]; inhibitor 166.5 nM, 30 min in plasma): 25.2709
- TMPRSS2 activity, Mean (0 nM = 100) (TMPRSS2 [2]; inhibitor 166.5 nM, 60 min in plasma): 26.798
- TMPRSS2 activity, Mean (0 nM = 100) (TMPRSS2 [2]; inhibitor 166.5 nM, 120 min in plasma): 22.618
- TMPRSS2 activity, Mean (0 nM = 100) (TMPRSS2 [2]; inhibitor 166.5 nM, 24 h in plasma): 21.6315
- TMPRSS2 activity, Mean (0 nM = 100) (TMPRSS2 [2]; inhibitor 166.5 nM, 10 d in plasma): 39.6688
- TMPRSS2 activity, Mean (0 nM = 100) (TMPRSS2 [2]; [3]): 13.9877
- TMPRSS2 activity, Mean (0 nM = 100) (TMPRSS2 [2]; inhibitor 1665 nM, 0 min in plasma): 0.5738
- TMPRSS2 activity, Mean (0 nM = 100) (TMPRSS2 [2]; inhibitor 1665 nM, 30 min in plasma): 7.5387
- TMPRSS2 activity, Mean (0 nM = 100) (TMPRSS2 [2]; inhibitor 1665 nM, 60 min in plasma): 0.2056
- TMPRSS2 activity, Mean (0 nM = 100) (TMPRSS2 [2]; inhibitor 1665 nM, 120 min in plasma): 7.6223
- TMPRSS2 activity, Mean (0 nM = 100) (TMPRSS2 [2]; inhibitor 1665 nM, 24 h in plasma): 2.774
- TMPRSS2 activity, Mean (0 nM = 100) (TMPRSS2 [2]; inhibitor 1665 nM, 10 d in plasma): 10.1282
- TMPRSS2 activity, Mean (0 nM = 100) (TMPRSS2 [2]; [4]): 12.6313

From article PMC9270327 (Communications Biology, 2022)
